In one data set the test system is Zymoseptoria tritici. In words: Test A: test solution sprayed on wheat seedlings, inoculated next day with Zymoseptoria tritici (wheat leaf blotch); disease rating (100 = 100% disease control, 0 = no control; dash = not tested). Type of data set: in vivo. The gist of the method: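 Wheat seedlings sprayed to run-off with test solution, inoculated next day with Z. tritici spores, held 48 h at 24° C in saturated atmosphere, then 17 days at 20° C before rating. Scores are % disease control relative to controls (100 = full control, 0 = none).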

A further data set relates to Alternaria solani. The data set is described as follows: Test F: test suspension sprayed on tomato seedlings, inoculated next day with Alternaria solani (tomato early blight); visual disease rating (100 = 100% disease control, 0 = no control; dash = not tested). The format is in vivo. In a few lines: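 Tomato seedlings sprayed to run-off with test suspension, inoculated next day with A. solani spores, held saturated at 27° C. for 48 h, then 20° C. for 3 days. Disease visually rated as % control relative to untreated controls.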

Data set [1] concerns Blumeria graminis f. sp. tritici. The data set is described as follows: Test C: test suspension sprayed on wheat seedlings, inoculated next day with Blumeria graminis f. sp. tritici (wheat powdery mildew); visual disease rating (100 = 100% disease control, 0 = no control; dash = not tested). The format is in vivo. In a few lines:
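Wheat seedlings were sprayed to run-off with test suspension, then dusted next day with Blumeria graminis f. sp. tritici spores. After 8 days at 20 °C in a growth chamber, disease was rated visually as percent control relative to untreated controls.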

The next data set concerns Botrytis cinerea. In words: Test E: test suspension sprayed on tomato seedlings, inoculated next day with Botrytis cinerea (tomato Botrytis); visual disease rating (100 = 100% disease control, 0 = no control; dash = not tested). Type of data set: in vivo. In a few lines:
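Tomato seedlings were sprayed to run-off and inoculated next day with Botrytis cinerea spores. They were held 48 h at 20° C in saturated humidity, then 3 days at 24° C. Disease control was rated visually against controls (100 = full, 0 = none).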

In data set [2] the test system is Puccinia recondita f. sp. tritici. In words: Test B: test solution sprayed on wheat seedlings, inoculated next day with Puccinia recondita f. sp. tritici (wheat leaf rust); disease rating (100 = 100% disease control, 0 = no control; dash = not tested). The format is in vivo. The text has this: The resulting test suspensions were then used in Tests A-F. The test solution was sprayed to the point of run-off on wheat seedlings. […] A rating of 100 indicates 100% disease control and a rating of 0 indicates no disease control (relative to the controls). A dash (—) indicates the compound was not tested.

The test system of a further data set is Phakopsora pachyrhizi. In words: Test D: test solution sprayed on soybean seedlings, inoculated next day with Phakopsora pachyrhizi (Asian soybean rust); visual disease rating (100 = 100% disease control, 0 = no control; dash = not tested). Type of data set: in vivo. The gist of the method: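 Compounds predissolved in acetone (3% of final volume), suspended at ppm concentrations in 50/50 acetone/water with 250 ppm PEG400, sprayed to run-off on soybean seedlings. Inoculated next day with spores, 24 h saturated atmosphere at 22 °C, then 8 days growth chamber at 22 °C; visual rating, 100 = full control.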

On to `COc1ccc(Cl)c(-c2nn(C)c(=O)c(C)c2-c2ccc(F)cc2Cl)c1` [Compound 102, 5-(2-chloro-4-fluorophenyl)-6-(2-chloro-5-methoxyphenyl)-2,4-dimethyl-3(2H)-pyridazinone], for which the melting point was in the range of 149 to 150 °C. The pest or weed control at 50 ppm with Zymoseptoria tritici stood at 100%. The same compound gave a pest or weed control at 50 ppm in the data set on Alternaria solani of 100%. In addition, the pest or weed control at 50 ppm in data set [1] came to 100%. The pest or weed control at 50 ppm in the data set with Botrytis cinerea was 98%. This compound also had a pest or weed control at 50 ppm in data set [2] of 100%. In the data set on Phakopsora pachyrhizi, this compound yielded a pest or weed control at 50 ppm of 100%.

`COc1cc(OC)c(Cl)c(-c2nn(C)c(=O)c(Cl)c2-c2ccc(F)cc2Cl)c1` [Compound 58, 4-chloro-6-(2-chloro-3,5-dimethoxyphenyl)-5-(2-chloro-4-fluorophenyl)-2-methyl-3(2H)-pyridazinone] gave a melting point of 85 to 90 °C. Further, the pest or weed control at 50 ppm with Zymoseptoria tritici stood at 100%. Besides, in the data set on Alternaria solani, the pest or weed control at 50 ppm worked out at 100%. For the same compound, the pest or weed control at 50 ppm in data set [1] was found to be 100%. Moreover, the pest or weed control at 50 ppm with Botrytis cinerea came out at 99%. This compound came in with a pest or weed control at 50 ppm in data set [2] of 100%. The pest or weed control at 50 ppm in the data set on Phakopsora pachyrhizi came to 100%.

In turn, `COc1cc(OC)c(Cl)c(-c2nn(C)c(=O)c(OC)c2-c2ccc(F)cc2Cl)c1` [Compound 80, 6-(2-chloro-3,5-dimethoxyphenyl)-5-(2-chloro-4-fluorophenyl)-4-methoxy-2-methyl-3(2H)-pyridazinone] registered a melting point of 130 to 133 °C. Further, the pest or weed control at 50 ppm with Zymoseptoria tritici worked out at 100%. In the data set on Alternaria solani, this compound displayed a pest or weed control at 50 ppm of 100%. In data set [1], the pest or weed control at 50 ppm came to 100%. Further, in the data set with Botrytis cinerea, the pest or weed control at 50 ppm turned out to be 99%. In addition, the pest or weed control at 50 ppm in data set [2] was 100%. The same compound showed a pest or weed control at 50 ppm in the data set on Phakopsora pachyrhizi of 100%.

The compound `COc1cc(OC)c(Cl)c(-c2nn(C)c(=O)cc2-c2ccc(F)cc2Cl)c1` [Compound 25, 6-(2-chloro-3,5-dimethoxyphenyl)-5-(2-chloro-4-fluorophenyl)-2-methyl-3(2H)-pyridazinone] displayed a melting point of 121 to 125 °C. The pest or weed control at 50 ppm with Zymoseptoria tritici was determined as 100%. In the data set with Alternaria solani, this compound displayed a pest or weed control at 50 ppm of 85%. Also, in data set [1], the pest or weed control at 50 ppm amounted to 98%. This compound displayed a pest or weed control at 50 ppm in the data set with Botrytis cinerea of 100%. This compound showed a pest or weed control at 50 ppm in data set [2] of 100%. This compound showed a pest or weed control at 50 ppm with Phakopsora pachyrhizi of 94%.

Compound `COc1cc(OC)cc(-c2nn(C)c(=O)cc2-c2c(F)cccc2F)c1` [Compound 38, 5-(2,6-difluorophenyl)-6-(3,5-dimethoxyphenyl)-2-methyl-3(2H)-pyridazinone] had a melting point of 132 to 136 °C. The compound further returned a pest or weed control at 250 ppm in the data set on Zymoseptoria tritici of 98%. In the data set with Alternaria solani, this compound had a pest or weed control at 250 ppm of 0%. In data set [1], this compound came in with a pest or weed control at 250 ppm of 81%. The pest or weed control at 250 ppm in the data set with Botrytis cinerea was 98%. This compound also had a pest or weed control at 250 ppm in data set [2] of 99%. In the data set with Phakopsora pachyrhizi, this compound yielded a pest or weed control at 250 ppm of 0%.

In turn, `COc1cc(OC)cc(C2=NN(C)C(=O)CC2c2c(F)cccc2F)c1` (stereo not drawn) [Compound 39, 5-(2,6-difluorophenyl)-6-(3,5-dimethoxyphenyl)-4,5-dihydro-2-methyl-3(2H)-pyridazinone] returned a melting point of 139 to 142 °C. In the data set on Zymoseptoria tritici, this compound yielded a pest or weed control at 250 ppm of 98%. The compound further gave a pest or weed control at 250 ppm in the data set on Alternaria solani of 0%. In addition, in data set [1], the pest or weed control at 250 ppm was found to be 69%. For the same compound, the pest or weed control at 250 ppm in the data set with Botrytis cinerea was 99%. Also, in data set [2], the pest or weed control at 250 ppm stood at 86%. For the same compound, the pest or weed control at 250 ppm in the data set on Phakopsora pachyrhizi amounted to 0%.

One may read the pest or weed control as the degree to which the test organism was suppressed or injured, in per cent. Read a high pest or weed control as a strong effect. In general, melting point refers to the temperature of the solid-liquid transition.
